Test results from patent publication US8716307B2, “Combination antineoplastic therapy” (The Trustees Of The University of Pennsylvania, priority 2009, dated 2014).

Tests used:
Assay type in all cases: cell-based
[1] = test system: LN229 cells expressing GFP-LC3; test: Cell counting of LN229 GFP-LC3 cells (Coulter Z2 particle analyzer, confirmed by trypan blue exclusion); conditions: 5 nM rapamycin and/or 5 μM chloroquine, FIG. 1
Method: Cell lines, transfection, and cell counting: LN229 cells were grown in DMEM supplemented with 10% heat-inactivated fetal bovine serum (Gemini Biosciences, Woodland, Calif.), 10 units/ml penicillin/streptomycin, and 2 mM L-glutamine (Invitrogen Corporation). LN229 cells were transfected with lipofectamine 2000 (Invitrogen) according to manufacturer protocol. Stable transfectants were selected with neomycin (Gibco), and high fluorescence clones of LN229 GFP-LC3 were selected by limiting dilution. For all in vitro experiments media+supplements and drugs treatments were changed daily. Cell number was assessed by using a Coulter Z2 particle analyzer and confirmed by trypan blue exclusion.

[2] = test system: LN229 GFP-LC3 cells; test: Fluorescence microscopy of GFP-LC3 puncta (autophagosome accumulation); conditions: increasing doses; 48 hours of treatment; FIG. 2
Method: Punctate flouresence indicates the accumulation of LC3-positive autophagosomes.
Fluorescence Microscopy: Cells were grown in sterile glass coverslips and treated in full medium as indicated above. After 48 hours of treatment cells were fixed with 4% paraformaldehyde and imaged using a Nikon upright fluorescent microscope. Images were captured at 100× and representative images were reported.

[3] = test system: LN229 GFP-LC3 cells; test: Electron microscopy of autophagic vesicles; conditions: FIG. 3
Excerpt: Cells were postfixed with 2% osmium tetroxide followed by an increasing gradient dehydration step using ethanol and propylene oxide.

Compound	cell number [1]	accumulation of LC3-positive autophagosomes (punctate fluorescence) [2]	autophagosomes in electron micrographs [3]
CCN(CC)CCCC(C)Nc1ccnc2cc(Cl)ccc12 (centres unmarked) [chloroquine]	decrease in cell number	accumulated LC3-positive autophagosomes	
CO[C@H]1C[C@@H]2CC[C@@H](C)[C@@](O)(O2)C(=O)C(=O)N2CCCC[C@H]2C(=O)O[C@H]([C@H](C)C[C@@H]2CC[C@@H](O)[C@H](OC)C2)CC(=O)[C@H](C)/C=C(\C)[C@@H](O)[C@@H](OC)C(=O)[C@H](C)C[C@H](C)/C=C/C=C/C=C/1C [rapamycin]	decrease in cell number	accumulated LC3-positive autophagosomes	autophagosomes are observed
